In brackets after ≈: the same amount, converted by molar mass.
How the values were obtained:
Assay type in all cases: functional, cell-based
L1210 = assay: Cytotoxicity against mouse L1210 cells
KB = assay: Cytotoxicity against human KB cells
P388 = assay: Cytotoxicity against mouse P388 cells

Compound	IC50 (L1210) [µg/mL]	IC50 (KB) [µg/mL]	IC50 (P388) [µg/mL]
CN[C@H](CSC)c1nccc2c1[nH]c1ccc(O)c(Br)c12 [EUDISTOMIDIN C]	0.36 (≈ 0.983 µM)		
CN1Cn2c3c(c4ccc(Br)cc42)CCN(C)[C@@H]3[C@@H]1Cc1ccccc1 [EUDISTOMIDIN H]	> 10	> 10	> 10
CN1Cn2c3c(c4cc(Br)ccc42)CCN(C)[C@@H]3[C@@H]1Cc1ccccc1 [EUDISTOMIDIN I]	> 10	> 10	> 10
CN[C@H](C[S+](C)[O-])c1nccc2c1[nH]c1ccc(O)c(Br)c12 (stereo partly drawn) [EUDISTOMIDIN J]	0.047 (≈ 0.123 µM)	0.063 (≈ 0.165 µM)	0.043 (≈ 0.112 µM)
CC(=O)c1nccc2c1[nH]c1ccc(O)c(Br)c12 [EUDISTOMIDIN K]	> 10	> 10	> 10
